Drawing on ChEMBL document CHEMBL1909046, “DrugMatrix in vitro pharmacology data”, this text covers IC50 and Ki for 6 compounds.

Each structure is given as a SMILES string.

The nature of test [1]: DRUGMATRIX: Glutamate, NMDA, Phencyclidine radioligand binding (ligand: [3H] TCP). In kind it is cell membranes, Rattus norvegicus, Wistar, Cerebral cortex, Membrane. The following applies: Not Active = under 50% inhibition at 10 µM.
The target of test [2] is T1, Neuropeptide Y receptor type 1 (Homo sapiens, UniProt P25929). Also: in other assays of this panel Not Active means under 50% inhibition at 10 µM.
T1 sequence (P25929 whole entry): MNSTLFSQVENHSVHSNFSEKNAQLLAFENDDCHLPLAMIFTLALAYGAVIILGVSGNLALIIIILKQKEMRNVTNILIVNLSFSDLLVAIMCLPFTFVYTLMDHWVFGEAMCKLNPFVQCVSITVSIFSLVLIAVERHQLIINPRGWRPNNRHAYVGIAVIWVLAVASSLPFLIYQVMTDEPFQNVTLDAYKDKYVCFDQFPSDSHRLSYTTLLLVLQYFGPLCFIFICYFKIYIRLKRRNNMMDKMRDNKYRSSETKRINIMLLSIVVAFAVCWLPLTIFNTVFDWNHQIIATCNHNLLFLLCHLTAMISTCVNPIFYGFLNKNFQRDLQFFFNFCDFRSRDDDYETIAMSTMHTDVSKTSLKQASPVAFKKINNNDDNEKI
In kind it is cell membranes, Membrane. To be noted: sk-n-mc.

Another test addresses Glycine receptor (Rattus norvegicus, UniProt P22771+P24524+P07727+P20781). The format is cell membranes, Wistar, Spinal cord, Membrane.
Test [3] is described as follows: DRUGMATRIX: Interleukin IL-1 radioligand binding (ligand: [125I] interleukin 1beta). The format is cell membranes, Membrane. To be noted: nih3t3; Not Active = under 50% inhibition at 10 µM.
The target of a further test is T2, Neutrophil elastase (Homo sapiens, UniProt P08246).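 Also: inhibition of neutrophil elastase enzyme activity, measured with a p-nitroanilide-linked peptide substrate; in other assays of this panel Not Active means under 50% inhibition at 10 µM.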
T2 sequence (P08246 whole entry): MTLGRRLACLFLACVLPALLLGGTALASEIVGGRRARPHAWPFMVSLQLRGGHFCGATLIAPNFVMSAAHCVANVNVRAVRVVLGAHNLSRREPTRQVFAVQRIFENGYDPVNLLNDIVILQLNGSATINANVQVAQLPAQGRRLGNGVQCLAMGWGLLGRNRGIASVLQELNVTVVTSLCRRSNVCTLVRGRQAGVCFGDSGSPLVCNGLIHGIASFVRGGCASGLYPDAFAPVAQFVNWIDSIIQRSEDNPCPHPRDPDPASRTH
In kind it is tissue-based.

The target in the next test is Adenosine receptor A2a (Homo sapiens, UniProt P29274). Put plainly: DRUGMATRIX: Adenosine A2A radioligand binding (ligand: […]). In kind it is cell membranes, HEK293, Membrane. The following applies: hek293; Not Active = under 50% inhibition at 10 µM.
The target in test [4] is 5-hydroxytryptamine receptor 4 (Cavia porcellus, UniProt O70528). The format is cell membranes, Dunkin-Hartley, Striatum, Membrane. Also: in other assays of this panel Not Active means under 50% inhibition at 10 µM.
Test [5] is described as follows: DRUGMATRIX: Calcium Channel Type L, Dihydropyridine radioligand binding (ligand: [3H] Nitrendipine). In kind it is cell membranes, Rattus norvegicus, Wistar, Cerebral cortex, Membrane. To be noted: Not Active = under 50% inhibition at 10 µM.
A further test addresses T3, Interstitial collagenase (Homo sapiens, UniProt P03956).
T3 sequence (P03956 whole entry): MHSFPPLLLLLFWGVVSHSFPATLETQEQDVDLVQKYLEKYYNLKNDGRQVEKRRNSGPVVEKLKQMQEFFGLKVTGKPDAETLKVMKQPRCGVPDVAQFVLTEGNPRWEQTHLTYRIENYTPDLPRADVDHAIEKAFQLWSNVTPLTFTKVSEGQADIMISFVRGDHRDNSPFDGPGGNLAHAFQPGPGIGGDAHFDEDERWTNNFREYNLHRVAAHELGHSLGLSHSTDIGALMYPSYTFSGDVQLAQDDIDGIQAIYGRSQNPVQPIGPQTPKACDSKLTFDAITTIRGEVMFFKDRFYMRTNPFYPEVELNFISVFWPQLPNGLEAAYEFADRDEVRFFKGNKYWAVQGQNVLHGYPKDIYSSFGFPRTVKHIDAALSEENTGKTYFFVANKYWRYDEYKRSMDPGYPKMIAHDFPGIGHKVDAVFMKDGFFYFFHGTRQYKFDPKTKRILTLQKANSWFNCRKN
The format is tissue-based, Rheumatoid synovial fibroblasts.

The target in test [6] is T4, Alpha-1B adrenergic receptor (Rattus norvegicus, UniProt P15823).
T4 sequence (P15823 whole entry): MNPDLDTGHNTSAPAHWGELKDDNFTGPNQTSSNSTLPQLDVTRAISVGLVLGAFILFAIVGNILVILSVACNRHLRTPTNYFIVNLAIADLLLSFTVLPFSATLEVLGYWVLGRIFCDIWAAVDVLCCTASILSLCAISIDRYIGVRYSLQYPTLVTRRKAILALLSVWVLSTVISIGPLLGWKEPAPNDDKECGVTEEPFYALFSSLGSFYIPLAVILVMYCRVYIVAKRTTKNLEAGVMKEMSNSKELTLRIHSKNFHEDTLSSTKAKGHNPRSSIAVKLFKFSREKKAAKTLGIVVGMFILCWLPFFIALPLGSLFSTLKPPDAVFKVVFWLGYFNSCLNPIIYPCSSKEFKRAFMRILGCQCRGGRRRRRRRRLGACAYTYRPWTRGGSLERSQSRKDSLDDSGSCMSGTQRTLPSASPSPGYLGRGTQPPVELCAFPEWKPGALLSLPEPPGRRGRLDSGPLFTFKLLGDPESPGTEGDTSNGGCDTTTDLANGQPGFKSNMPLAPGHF
Put plainly: DRUGMATRIX: Alpha-1B adrenergic receptor radioligand binding (ligand: prazosin). The format is cell membranes, Wistar, Liver, Membrane. To be noted: Not Active = under 50% inhibition at 10 µM.

Test [7] addresses T5, Polyunsaturated fatty acid lipoxygenase ALOX15 (Oryctolagus cuniculus, UniProt P12530).
T5 sequence (P12530 whole entry): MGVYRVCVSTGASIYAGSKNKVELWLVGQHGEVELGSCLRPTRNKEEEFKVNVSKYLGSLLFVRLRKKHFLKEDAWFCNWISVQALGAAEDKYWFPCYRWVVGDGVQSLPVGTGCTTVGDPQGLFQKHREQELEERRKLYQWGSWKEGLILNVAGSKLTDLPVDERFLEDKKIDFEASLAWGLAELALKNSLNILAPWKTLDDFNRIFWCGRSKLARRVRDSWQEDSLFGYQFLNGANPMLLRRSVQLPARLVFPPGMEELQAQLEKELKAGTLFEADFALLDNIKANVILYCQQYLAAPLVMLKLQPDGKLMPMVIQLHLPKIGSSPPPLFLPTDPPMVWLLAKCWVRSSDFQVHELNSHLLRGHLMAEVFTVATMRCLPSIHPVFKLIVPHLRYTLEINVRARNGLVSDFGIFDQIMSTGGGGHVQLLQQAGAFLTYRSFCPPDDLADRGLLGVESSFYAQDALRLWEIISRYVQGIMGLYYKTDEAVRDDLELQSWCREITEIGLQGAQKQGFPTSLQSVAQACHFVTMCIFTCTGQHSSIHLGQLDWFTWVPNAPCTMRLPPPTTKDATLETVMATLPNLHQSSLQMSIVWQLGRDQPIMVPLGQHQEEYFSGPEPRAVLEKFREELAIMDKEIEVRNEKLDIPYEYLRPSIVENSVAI
Put plainly: biochemical. In kind it is tissue-based, Reticulocytes. To be noted: reticulocytes.

Chain of Adenosine receptor A2a (P29274 whole entry): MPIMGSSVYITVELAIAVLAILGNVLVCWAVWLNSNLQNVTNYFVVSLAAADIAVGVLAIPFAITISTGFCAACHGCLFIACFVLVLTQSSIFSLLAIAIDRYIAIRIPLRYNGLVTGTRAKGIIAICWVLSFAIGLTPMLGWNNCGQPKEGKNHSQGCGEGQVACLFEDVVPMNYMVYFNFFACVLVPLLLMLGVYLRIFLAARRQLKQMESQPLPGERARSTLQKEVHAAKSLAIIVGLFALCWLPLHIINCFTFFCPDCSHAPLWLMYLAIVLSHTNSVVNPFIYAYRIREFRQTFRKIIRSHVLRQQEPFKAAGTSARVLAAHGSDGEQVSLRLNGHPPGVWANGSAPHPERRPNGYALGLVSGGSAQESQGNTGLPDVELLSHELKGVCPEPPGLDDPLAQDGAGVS
Chain of 5-hydroxytryptamine receptor 4 (O70528 whole entry): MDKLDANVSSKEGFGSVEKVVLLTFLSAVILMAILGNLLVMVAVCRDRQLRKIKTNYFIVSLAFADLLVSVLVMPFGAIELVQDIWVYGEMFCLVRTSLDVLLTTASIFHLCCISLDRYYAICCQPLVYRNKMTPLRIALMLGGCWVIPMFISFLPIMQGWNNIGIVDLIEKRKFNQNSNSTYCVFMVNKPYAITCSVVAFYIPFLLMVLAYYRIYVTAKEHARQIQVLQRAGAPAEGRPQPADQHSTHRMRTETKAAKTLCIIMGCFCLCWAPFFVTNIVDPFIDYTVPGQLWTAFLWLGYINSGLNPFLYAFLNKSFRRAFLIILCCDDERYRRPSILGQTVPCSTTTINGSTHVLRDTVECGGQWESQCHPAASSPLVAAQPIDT

Broadly, the IC50 is the point on the concentration scale where inhibition reaches its midpoint. A word on the Ki: it is the dissociation constant of the complex between target and ligand, obtained from inhibition or displacement. For `O=[N+]([O-])c1cc([As](=O)(O)O)ccc1O` [ROXARSONE], the IC50 result (in test [1]; in test [2]; at Glycine receptor; in test [3]; at Neutrophil elastase; at Adenosine receptor A2a) was “Not Active” each time. For the same compound, the IC50 result (in test [4]; in test [5]; against Interstitial collagenase; in test [6]; in test [7]) was “Not Active” throughout. Also, the Ki entry (in test [1]; in test [2]; on Glycine receptor; in test [3]; at Neutrophil elastase; at Adenosine receptor A2a) was “Not Active” in each case. Moreover, the Ki result (in test [4]; in [5]; on Interstitial collagenase; in test [6]; in [7]) was “Not Active” in each case.

Turning to `CC[C@H]1OC(=O)[C@H](C)[C@@H](O[C@H]2C[C@@](C)(OC)[C@@H](O)[C@H](C)O2)[C@H](C)[C@@H](O[C@@H]2O[C@H](C)C[C@H](N(C)C)[C@H]2O)[C@](C)(O)C[C@@H](C)/C(=N\OCOCCOC)[C@H](C)[C@@H](O)[C@]1(C)O` [ROXITHROMYCIN], the IC50 result (in [1]; in test [2]; on Glycine receptor; in test [3]; against Neutrophil elastase; at Adenosine receptor A2a) was “Not Active” throughout. Also, the IC50 result in test [4] is “Not Active”; in test [5], “Not Active”; at Interstitial collagenase, “Not Active”; in test [6] (read-out: IC50) it was 989 nM; in test [7], “Not Active”. The Ki result was “Not Active” in test [1], “Not Active” in test [3], “Not Active” in [5] and 548 nM in [6] (read-out: Ki).

For `NC(=O)c1ccccc1O` [SALICYLAMIDE], the IC50 result (in test [1]; in [2]; against Glycine receptor; in [3]; on Neutrophil elastase; on Adenosine receptor A2a) was “Not Active” in each case. Also, the IC50 result (in test [4]; in [5]; on Interstitial collagenase; in test [6]; in [7]) was “Not Active” in each case. Further, the Ki entry in test [1], in test [3] and in [5] was “Not Active” each time.

As to `Cc1ncc([N+](=O)[O-])n1CC(C)O` (stereo not drawn) [SECNIDAZOLE], the IC50 entry (in [1]; in test [2]; at Glycine receptor; in [3]; at Neutrophil elastase; on Adenosine receptor A2a) was “Not Active” each time. The concentration for half-maximal inhibition (IC50) entry (in test [4]; in test [5]; at Interstitial collagenase; in test [6]; in [7]) was “Not Active” in each case. The Ki entry in test [1], in test [3] and in test [5] was “Not Active” throughout.

Regarding `CN[C@@H]1[C@@H](O)[C@@H](O[C@@H]2[C@@H](O)[C@H](O[C@H]3OC(CN)=CC[C@H]3N)[C@@H](N)C[C@H]2N)OC[C@]1(C)O` [SISOMICIN], the IC50 result (in test [1]; in test [2]; against Glycine receptor; in test [3]; on Neutrophil elastase; at Adenosine receptor A2a) was “Not Active” throughout. Besides, the IC50 entry (in test [4]; in test [5]; against Interstitial collagenase; in [6]; in [7]) was “Not Active” each time. Further, the inhibition constant (Ki) entry in test [1], in test [3] and in test [5] was “Not Active” in each case.

`CC(=O)S[C@@H]1CC2=CC(=O)CC[C@]2(C)[C@H]2CC[C@@]3(C)[C@@H](CC[C@@]34CCC(=O)O4)[C@H]12` [SPIRONOLACTONE]: the IC50 entry (in test [1]; in [2]; against Glycine receptor; in [3]; at Neutrophil elastase; at Adenosine receptor A2a) was “Not Active” in each case. Besides, the IC50 result (in [4]; in [5]; on Interstitial collagenase; in test [6]; in test [7]) was “Not Active” throughout. The Ki entry in test [1], in test [3] and in test [5] was “Not Active” throughout.
